Results on 41 compounds are retold here after patent publication US10632125B2, “MTH1 inhibitors for treatment of inflammatory and autoimmune conditions” (THOMAS HELLEDAYS STIFTELSE FÖR MEDICINSK FORSKNING, priority 2014, dated 2020).

The target of the assay is MTH1 (Homo sapiens, UniProt P36639). Kind of assay: MTH1 enzymatic assay (malachite green, coupled to pyrophosphatase). The assay is classed as biochemical. Particulars: dGTP 100 μM, MTH1 6 nM; 96- or 384-well format; read-out: IC50.
Take `COc1ccc(NCCNc2cc(-c3cccc(C)c3C)nc(N)n2)cc1S(=O)(=O)O` [Example 545, 5-[(2-{[2-amino-6-(2,3-dimethylphenyl)pyrimidin-4-yl]amino}ethyl)amino]-2-methoxybenzene-1-sulfonic Acid]: the IC50 (as a rule, the concentration that inhibits the measured activity by half) is less than 200 nM. `Nc1nc(NCCc2ccc(S(N)(=O)=O)cc2)cc(C2=CCN(S(=O)(=O)C3CC3)CC2)n1` [Example 555, 4-[2-({2-amino-6-[1-(cyclopropanesulfonyl)-1,2,3,6-tetrahydropyridin-4-yl]pyrimidin-4-yl}amino)ethyl]benzene-1-sulfonamide]: the IC50 is less than 200 nM.

As to `Cc1cccc(-c2cc(NCCNc3cc(-c4cccc(C)c4C)nc(N)n3)nc(N)n2)c1C` [Example 561, 4-N-(2-{[2-amino-6-(2,3-dimethylphenyl)pyrimidin-4-yl]amino}ethyl)-6-(2,3-dimethylphenyl)pyrimidine-2,4-diamine], the IC50 was less than 200 nM. Turning to `Cc1c(Cl)cccc1-c1cc(NC2CC2C)nc(N)n1` (centres unmarked) [Example 581, 6-(3-chloro-2-methylphenyl)-4-N-(2-methylcyclopropyl)pyrimidine-2,4-diamine], the half-maximal inhibitory concentration (IC50) was less than 200 nM. For the compound `Cc1cccc(-c2cc(NC3CNC3)nc(N)n2)c1C` [Example 589, 4-N-(azetidin-3-yl)-6-(2,3-dimethylphenyl)pyrimidine-2,4-diamine], the IC50 was 2000 to 10000 nM. Then `Cc1c(Cl)cccc1-c1cc(NCCc2ccc(NC(=O)C3CC3)cc2)nc(N)n1` [Example 597, N-[4-(2-{[2-amino-6-(3-chloro-2-methylphenyl)pyrimidin-4-yl]amino}ethyl)phenyl]cyclopropanecarboxamide], with less than 200 nM; and `Cc1cccc(-c2cc(NCCc3cccs3)nc(N)n2)c1C` [Example 598, 6-(2,3-dimethylphenyl)-4-N-[2-(thiophen-2-yl)ethyl]pyrimidine-2,4-diamine], with less than 200 nM; and `Cc1c(Cl)cccc1-c1cc(NCCc2ccc(Cl)c(Cl)c2)nc(N)n1` [Example 599, 6-(3-chloro-2-methylphenyl)-4-N-[2-(3,4-dichlorophenyl)ethyl]pyrimidine-2,4-diamine], with less than 200 nM. Consider `Cc1c(Cl)cccc1-c1cc(NCCc2ccc(Cl)cc2Cl)nc(N)n1` [Example 600, 6-(3-chloro-2-methylphenyl)-4-N-[2-(2,4-dichlorophenyl)ethyl]pyrimidine-2,4-diamine], for which the IC50 was less than 200 nM.

Regarding `Cc1c(Cl)cccc1-c1cc(NCCc2ccc(C#N)cc2)nc(N)n1` [Example 625, 4-(2-{[2-amino-6-(3-chloro-2-methylphenyl)pyrimidin-4-yl]amino}ethyl)benzonitrile], the IC50 is less than 200 nM. On to `CNc1cc(C#Cc2ccccc2)nc(N)n1` [Example 626, 4-N-methyl-6-(2-phenylethynyl)pyrimidine-2,4-diamine], for which the IC50 is less than 200 nM. The same measure for `Cc1c(Cl)cccc1-c1cc(NCCNc2ccc3c(=O)[nH]cnc3c2)nc(N)n1` [Example 632, 7-[2-[[2-amino-6-(3-chloro-2-methyl-phenyl)pyrimidin-4-yl]amino]ethylamino]-3H-quinazolin-4-one]: less than 200 nM; for `Cc1c(Cl)cccc1-c1cc(NCCc2ccc(N)cc2)nc(N)n1` [Example 642, N4-[2-(4-aminophenyl)ethyl]-6-(3-chloro-2-methyl-phenyl)pyrimidine-2,4-diamine]: less than 200 nM. With `Cc1c(Cl)cccc1-c1cc(NCCNS(=O)(=O)c2cccc(F)c2)nc(N)n1` [Example 660, N-[2-[[2-amino-6-(3-chloro-2-methyl-phenyl)pyrimidin-4-yl]amino]ethyl]-3-fluoro-benzenesulfonamide], the IC50 was less than 200 nM. On to `Cc1c(Cl)cccc1-c1cc(NCCNC(=O)Nc2cccc(F)c2)nc(N)n1` [Example 663, 1-[2-[[2-amino-6-(3-chloro-2-methyl-phenyl)pyrimidin-4-yl]amino]ethyl]-3-(3-fluorophenyl)urea], for which the IC50 is less than 200 nM. As for `Cc1c(Cl)cccc1-c1cc(NC2CN(c3ccc(S(N)(=O)=O)cc3)C2)nc(N)n1` [Example 667], the IC50 lay within 2000 to 10000 nM.

`Cc1c(Cl)cccc1-c1cc(NCCCNC(=O)OC(C)(C)C)nc(N)n1` [Example 668, tert-butyl N-[3-[[2-amino-6-(3-chloro-2-methyl-phenyl)pyrimidin-4-yl]amino]propyl]carbamate]: the IC50 was less than 200 nM. For the compound `Cc1c(Cl)cccc1-c1cc(NCCCCc2ccccc2)nc(N)n1` [Example 680, 6-(3-chloro-2-methyl-phenyl)-N4-(4-phenylbutyl)pyrimidine-2,4-diamine], the IC50 is less than 200 nM. On to `Cc1c(Cl)cccc1-c1cc(NCCC2=CCCCC2)nc(N)n1` [Example 681, 6-(3-chloro-2-methyl-phenyl)-N4-[2-(cyclohexen-1-yl)ethyl]pyrimidine-2,4-diamine], for which the IC50 is less than 200 nM. As for `C=CCCNc1cc(-c2cccc(Cl)c2C)nc(N)n1` [Example 682, N4-but-3-enyl-6-(3-chloro-2-methyl-phenyl)pyrimidine-2,4-diamine], the half-inhibitory concentration (IC50) is less than 200 nM. In the case of `Cc1c(Cl)cccc1-c1cc(NCCNc2cccc3c(S(=O)(=O)O)cccc23)nc(N)n1` [Example 683, 5-[2-[[2-amino-6-(3-chloro-2-methyl-phenyl)pyrimidin-4-yl]amino]ethylamino]naphthalene-1-sulfonic acid], the IC50 is less than 200 nM. Take `Cc1c(Cl)cccc1-c1cc(NCCOCC2CC2)nc(N)n1` [Example 684, 6-(3-chloro-2-methyl-phenyl)-N4-[2-(cyclopropylmethoxy)ethyl]pyrimidine-2,4-diamine]: the IC50 was less than 200 nM. On to `Cc1c(Cl)cccc1-c1cc(NCC=C(F)F)nc(N)n1` [Example 686, 6-(3-chloro-2-methyl-phenyl)-N4-(3,3-difluoroallyl)pyrimidine-2,4-diamine], for which the IC50 was less than 200 nM.

Consider `Cc1c(Cl)cccc1-c1cc(NCCC(F)(F)Br)nc(N)n1` [Example 687, N4-(3-bromo-3,3-difluoro-propyl)-6-(3-chloro-2-methyl-phenyl)pyrimidine-2,4-diamine], for which the IC50 was less than 200 nM. Then `Cc1c(Cl)cccc1-c1cc(NCCSCCc2ccccc2)nc(N)n1` [Example 690, 6-(3-chloro-2-methylphenyl)-N4-{2-[(2-phenylethyl)sulfanyl]ethyl}pyrimidine-2,4-diamine], with less than 200 nM.

Turning to `Cc1c(Cl)cccc1-c1cc(NCC[S+]([O-])CCc2ccccc2)nc(N)n1` (centres unmarked) [Example 692, 6-(3-chloro-2-methyl-phenyl)-N4-[2-(2-phenylethylsulfinyl)ethyl]pyrimidine-2,4-diamine], the IC50 was in the range of 2000 to 10000 nM. Then `Cc1cc(CSCCNc2cc(-c3cccc(Cl)c3C)nc(N)n2)no1` [Example 700, 6-(3-chloro-2-methyl-phenyl)-N4-[2-[(5-methylisoxazol-3-yl)methylsulfanyl]ethyl]pyrimidine-2,4-diamine], with less than 200 nM; and `Cc1noc(C)c1CCNc1cc(-c2cccc(Cl)c2C)nc(N)n1` [Example 701, 6-(3-chloro-2-methyl-phenyl)-N4-[2-(3,5-dimethylisoxazol-4-yl)ethyl]pyrimidine-2,4-diamine], with less than 200 nM; and `CCCNc1cc(-c2cccc(Cl)c2C)nc(N)n1` [Example 702, 6-(3-chloro-2-methyl-phenyl)-N4-propyl-pyrimidine-2,4-diamine], with less than 200 nM.

On to `CCCCNc1cc(-c2cccc(Cl)c2C)nc(N)n1` [Example 703, N4-butyl-6-(3-chloro-2-methyl-phenyl)pyrimidine-2,4-diamine], for which the IC50 was less than 200 nM. The same measure for `COCCNc1cc(-c2cccc(Cl)c2C)nc(N)n1` [Example 704, 6-(3-chloro-2-methyl-phenyl)-N4-(2-methoxyethyl)pyrimidine-2,4-diamine]: less than 200 nM; for `CCOCCCNc1cc(-c2cccc(Cl)c2C)nc(N)n1` [Example 705, 6-(3-chloro-2-methyl-phenyl)-N4-(3-ethoxypropyl)pyrimidine-2,4-diamine]: less than 200 nM; for `Cc1c(Cl)cccc1-c1cc(NCC2CCOCC2)nc(N)n1` [Example 706, 6-(3-chloro-2-methyl-phenyl)-N4-(tetrahydropyran-4-ylmethyl)pyrimidine-2,4-diamine]: less than 200 nM.

Take `Cc1c(Cl)cccc1-c1cc(NCC2CCCO2)nc(N)n1` (centres unmarked) [Example 707, 6-(3-chloro-2-methyl-phenyl)-N4-(tetrahydrofuran-2-ylmethyl)pyrimidine-2,4-diamine]: the 50% inhibitory concentration (IC50) was less than 200 nM. For the compound `CC(C)=CCC/C(C)=C/CNc1cc(-c2cccc(Cl)c2C)nc(N)n1` [Example 708, 6-(3-chloro-2-methyl-phenyl)-N4-[(2E)-3,7-dimethylocta-2,6-dienyl]pyrimidine-2,4-diamine], the IC50 is less than 200 nM. Regarding `Cc1c(Cl)cccc1-c1cc(NCC(C)C)nc(N)n1` [Example 709, 6-(3-chloro-2-methyl-phenyl)-N4-isobutyl-pyrimidine-2,4-diamine], the IC50 was less than 200 nM.

`Cc1c(Cl)cccc1-c1cc(NCCc2ccccc2)nc(N)n1` [Example 713, 6-(3-chloro-2-methyl-phenyl)-N4-(2-phenylethyl)pyrimidine-2,4-diamine]: the IC50 is less than 200 nM.

On to `Cc1c(Cl)cccc1-c1cc(NCCc2ccncc2)nc(N)n1` [Example 714, 6-(3-chloro-2-methyl-phenyl)-N4-[2-(4-pyridyl)ethyl]pyrimidine-2,4-diamine], for which the IC50 is less than 200 nM. As to `Cc1c(Cl)cccc1-c1cc(NCCc2ccccn2)nc(N)n1` [Example 715, 6-(3-chloro-2-methyl-phenyl)-N4-[2-(2-pyridyl)ethyl]pyrimidine-2,4-diamine], the IC50 is less than 200 nM. In the case of `Cc1c(Cl)cccc1-c1cc(NC/C(=C\F)CCc2ccc(F)cc2)nc(N)n1` [Example 721, 6-(3-chloro-2-methyl-phenyl)-N4-[(2Z)-2-(fluoromethylene)-4-(4-fluorophenyl)butyl]pyrimidine-2,4-diamine], the IC50 is less than 200 nM. As for `Cc1cc(C[S+]([O-])CCNc2cc(-c3cccc(Cl)c3C)nc(N)n2)no1` (centres unmarked) [Example 725, 6-(3-chloro-2-methyl-phenyl)-N4-[2-[(5-methylisoxazol-3-yl)methylsulfinyl]ethyl]pyrimidine-2,4-diamine], the IC50 lay within 2000 to 10000 nM.
